The text below walks through data of patent US9073874B2, “Cyclic N,N′-diarylthioureas and N,N′-diarylureas-androgen receptor antagonists, anticancer agent, method for preparation and use thereof” (priority 2010, dated 2015).

“Also recorded” adds a separate entry of the source.

In one series the target is T1, androgen receptors (Homo sapiens, UniProt P10275, T878A).
T1 construct: host or cells: LNCaP
T1 sequence (P10275 1-920 T878A): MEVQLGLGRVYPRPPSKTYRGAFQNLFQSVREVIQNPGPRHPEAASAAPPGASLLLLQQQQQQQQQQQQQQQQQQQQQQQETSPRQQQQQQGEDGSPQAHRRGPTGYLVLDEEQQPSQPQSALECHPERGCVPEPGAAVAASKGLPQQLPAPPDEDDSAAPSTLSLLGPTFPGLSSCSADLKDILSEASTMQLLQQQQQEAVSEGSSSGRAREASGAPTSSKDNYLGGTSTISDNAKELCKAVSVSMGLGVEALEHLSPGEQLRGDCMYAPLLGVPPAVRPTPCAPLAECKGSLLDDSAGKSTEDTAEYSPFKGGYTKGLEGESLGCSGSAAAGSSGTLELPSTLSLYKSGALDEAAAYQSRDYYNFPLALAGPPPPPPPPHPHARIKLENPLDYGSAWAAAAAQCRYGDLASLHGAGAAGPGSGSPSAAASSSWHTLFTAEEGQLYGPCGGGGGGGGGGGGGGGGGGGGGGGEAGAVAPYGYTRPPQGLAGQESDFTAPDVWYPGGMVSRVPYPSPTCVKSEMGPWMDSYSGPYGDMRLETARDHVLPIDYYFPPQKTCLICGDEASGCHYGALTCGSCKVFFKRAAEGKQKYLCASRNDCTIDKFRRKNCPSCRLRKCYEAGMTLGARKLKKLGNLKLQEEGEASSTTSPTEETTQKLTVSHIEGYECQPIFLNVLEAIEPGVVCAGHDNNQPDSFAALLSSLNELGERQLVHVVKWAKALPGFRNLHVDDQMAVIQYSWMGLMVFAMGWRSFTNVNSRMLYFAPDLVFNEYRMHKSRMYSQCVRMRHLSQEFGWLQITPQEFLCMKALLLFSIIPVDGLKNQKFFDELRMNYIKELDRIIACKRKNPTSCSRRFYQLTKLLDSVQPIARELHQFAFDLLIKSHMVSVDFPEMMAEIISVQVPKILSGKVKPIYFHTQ
Description: cell-based. Format: cell-based. The procedure:
The expression of PSA was measured in the culture medium 24 hours thereafter (FIG. 1). […] The LnCAP cells were cultured for a further 5 days and the number of viable cells was then calculated.
FIG. 1. Inhibition of DHT-stimulated PSA expression in LnCAP cells.
These cells are sensitive towards 5-a-dihydrotestosterone (DHT) and in the presence thereof produce cancer markers (PSA). […] Before the experiment, the cells were washed and suspended in the same medium, in which, however, a serum treated with charcoal for removal of hormone traces was used instead of calf serum. The cells (10 000 in total) were embedded into the wells of 96-well plates at 100 μl per well and left for 4 days in an incubator at 37° C. […] The cells were incubated for a further 5 days under the same conditions. Then, samples of the supracellular medium were taken and analyzed for PSA. The test was carried out according to the protocol recommended by the manufacturer of the kit for PSA measurement (Alpha Diagnostic International, USA). After wetting the wells containing PSA antibodies attached to their bottoms, 25 μl of test compounds and 100 μl of PSA antibodies pre-conjugated to horseradish peroxidase were added successively to each well. Following a 30-minute incubation at room temperature, the content of each well was removed, the wells were washed several times, and 100 μl of a peroxidase chromogenic substrate was then added to each well. […] Based on data about the dependence of DHT-related reduction of PSA synthesis on the concentration of test compounds, dose-response curves were plotted to determine IC50 values. Said values were used for calculating apparent inhibition constants (Ki) for compounds of general formula I according to Cheng-Prusoff equation. [Cheng, Y., Prusoff, W. H. “Relationship between the inhibition constant (Ki) and the concentration of inhibitor which causes 50 percent inhibition (IC50) of an enzymatic reaction”. Biochem Pharmacol.

The next series deals with CYP 3A. The series is described as follows: CYP 3A induction assay. Format: in vitro ADME.
Series [1] is described as follows: Distribution in plasma, brain and prostate after single IV administration in rats. Format: in vivo. The settings on record: for concentration at 30 min / concentration at 120 min: rat, plasma; for concentration at 30 min / concentration at 120 min / Brain / Plasma / Prostate: Mean ± SD, n = 3.
A further series concerns LnCAP-Z2 tumors. The series is described as follows: Prostate cancer xenograft model, SCID male mice bearing LnCAP-Z2 tumors. The settings on record: analysis of individual tumors, 21 days oral. Format: in vivo. The procedure:
SCID male mice bearing LnCAP-Z2 tumors (mean volume˜160-190 mm^3) were treated daily by oral gavage with vehicle or drugs for 21 days. Individual tumor volume change by the end of the study. Percentage of change in individual tumor volumes as compared to the start of treatment.
FIG. 6. […] SCID male mice bearing LnCAP-Z2 tumors (mean volume˜160-190 mm^3) treated daily by oral gavage with vehicle or drugs for 21 days. Individual tumor volume change by the end of the study. Percentage of change in individual tumor volumes compared to the start of treatment.
FIG. 7. […] SCID male mice bearing LnCAP-Z2 tumors (mean volume˜160-190 mm^3) treated daily by oral gavage with vehicle or drugs for 21 days. (A)—Tumor weight by the end of the study. Mean±SEM are presented. […] (B)—PSA expression by the end of the study. Plasma samples were collected 24 hours after the last drug administration. Mean±SEM are presented.
The antitumor efficacy of (R)-1 was tested in a xenograft model of prostate cancer (FIGS. 6 and 7). Male immunodeficient mice harboring LnCAP-Z2 tumors were treated orally for 21 days with either vehicle or (R)-1 at 20 and 50 mg/kg once daily and at 20 mg/kg twice daily. […] Twenty-four hours after last treatment, blood samples were collected from all animals and used for measuring PSA expression and drug concentration. In addition, the concentration of drugs and Ki67 expression were measured in tumor samples.

Series [2] in a line: Maximum tolerated dose, peroral once a day for 5 days in CD1 male mice. Format: in vivo. The procedure:
The maximum tolerated doses (MTD) of novel antagonists (R)-1 and their analog Ia were determined in experiments on CD1 male mice at peroral administration once a day for 5 days in doses of 10, 30, and 100 mg/kg. The compound was dissolved in sterile water with addition of Tween 80. Sterile water with Tween 80 was given to control animals (Placebo group). Animals' body weight and mortality rate were estimated. Statistical comparison of groups was carried out according to a non-parametric ANOVA test using Statistica software.

[3] abbreviates: CD1 male mice, peroral, 100 mg/kg.

Consider `CNC(=O)c1ccc(N2C(=S)N(c3ccc(C#N)c(C(F)(F)F)c3)C(=O)C23CCOC3)cc1F` (racemic) [compound 1, 4-[3-(4-Cyano-3-trifluoromethyl-phenyl)-4-oxo-2-thioxo-7-oxa-1,3-diaza-spiro[4.4]non-1-yl]-2-fluoro-N-methyl-benzamide], for which, at androgen receptors, the “AR antagonistic activity (in words)” value was “comparable with that of Ia”.
Turning to `CNC(=O)c1ccc(N2C(=S)N(c3cnc(C#N)c(C(F)(F)F)c3)C(=O)C23CCC3)cc1F` [III], in the series on CYP 3A (Concentration 1 μM), the “Positive control, % (CYP 3A induction)” value came out at 16.3 ± 2.5%. Further, the “Positive control, % (CYP 3A induction)” value with CYP 3A (Concentration 10 μM) amounted to 102.7 ± 13.0%. For the same molecule, in series [1] (single IV 1 mg/kg, 30 min), the concentration at 30 min stood at 0.251 ± 0.029 µg/mL, the Brain/Plasma came to 0.96 ± 0.03, the Prostate/Plasma is on record as 1.94 ± 0.24 and the Brain is listed as 241 ± 21 ng/g. In series [1] (single IV 1 mg/kg, 30 min), the Plasma turned out to be 251 ± 29 ng/mL and the Prostate is reported as 487 ± 73 ng/g. Also, in series [1] (single IV 1 mg/kg, 120 min), the concentration at 120 min came to 0.153 ± 0.01 µg/mL, the Brain/Plasma is recorded as 1.15 ± 0.27, the Prostate/Plasma came out at 3.15 ± 0.94 and the Brain stood at 176 ± 31 ng/g. In series [1] (single IV 1 mg/kg, 120 min), this molecule gave a Plasma of 153 ± 10 ng/mL and a Prostate of 482 ± 120 ng/g.
For orientation: Ki means a dissociation constant, usually derived from enzyme kinetics or from competition with a known ligand. Read a low Ki as a stronger hold on the target. `CNC(=O)c1ccc(N2C(=S)N(c3ccc(C#N)c(C(F)(F)F)c3)C(=O)[C@@]23CCOC3)cc1F` [(S)-1] had a Ki at androgen receptors of 0.215 µM.
The term MTD denotes the highest dose tested that stayed within the study's limit of toxicity. A lower MTD goes with a narrow tolerated range. Consider `CNC(=O)c1ccc(N2C(=S)N(c3ccc(C#N)c(C(F)(F)F)c3)C(=O)C2(C)C)cc1F` [Ia, MDV3100], for which the “Positive control, % (CYP 3A induction)” value with CYP 3A (Concentration 1 μM) stood at 10.0 ± 2.0%. For the same molecule, the “Positive control, % (CYP 3A induction)” value in the series on CYP 3A (Concentration 10 μM) is reported as 73.3 ± 6.8%. Moreover, in the series with LnCAP-Z2 tumors, the “effect on individual tumors (in words)” value is “stimulate tumor regression”. Also, in series [1] (single IV 2 mg/kg, 30 min), the concentration at 30 min was found to be 0.263 ± 0.019 µg/mL, the Brain is 164 ± 19 ng/g, the Plasma was found to be 263 ± 19 ng/mL and the Prostate is on record as 102 ± 4 ng/g. Moreover, in series [1] (single IV 2 mg/kg, 120 min), the concentration at 120 min was 0.377 ± 0.153 µg/mL, the Brain is 152 ± 31 ng/g, the Plasma amounted to 377 ± 153 ng/mL and the Prostate is recorded as 124 ± 27 ng/g. In addition, the MTD at 5 days in series [2] (CD1, mouse, in vivo, oral, male CD-1 mice, peroral once a day for 5 days) was roughly 30 mg/kg. Also, the “p, body weight versus Placebo group” value in series [2] (CD1 male mice, 100 mg/kg, 5th day) stood at 0.002. Besides, in series [2] (setting [3]), the “body weight versus control animals (Placebo group)” value is given as “statistically differed” and the mortality entry is on record as “One animal died”. Besides, the mortality entry in series [2] (CD1 male mice, peroral, doses below 100 mg/kg (10 and 30 mg/kg)) is “did not lead to death; also recorded: did not cause death”. For the same molecule, in series [2] (male CD-1 mice, peroral once a day for 5 days), the “maximum tolerated dose (MTD)” value was “about 30 mg/kg”.
